Results taken from ChEMBL document CHEMBL1154314, “Synthesis and antitumor activities of 3-modified 2-methoxyestradiol analogs” (Bioorg Med Chem Lett, 2009).

Assays:
[1] = test system: MDA-MB-231; test: Antiproliferative activity against human MDA-MB-231 cells; type: functional, cell-based
[2] = test system: HUVEC; test: Antiangiogenic activity in HUVEC assessed as inhibition of cell proliferation; type: functional, cell-based; conditions: Homo sapiens

SMILES | IC50 [1] | IC50 [2]
COc1cc2c(cc1S)CC[C@@H]1[C@@H]2CC[C@]2(C)[C@@H](O)CC[C@@H]12 | 56.2 µM | 12.9 µM
C=Cc1cc2c(cc1OC)[C@H]1CC[C@]3(C)[C@@H](O)CC[C@H]3[C@@H]1CC2 | 8.93 µM | 1.96 µM
COc1cc2c(cc1C(N)=O)CC[C@@H]1[C@@H]2CC[C@]2(C)[C@@H](O)CC[C@@H]12 | 2.36 µM | 2.59 µM
COC(=O)Nc1cc2c(cc1OC)[C@H]1CC[C@]3(C)[C@@H](O)CC[C@H]3[C@@H]1CC2 | 17.6 µM | 5.92 µM
COc1cc2c(cc1OC)[C@H]1CC[C@]3(C)[C@@H](O)CC[C@H]3[C@@H]1CC2 | 43.7 µM | 31.5 µM
COc1ccc2c(c1)[C@H]1CC[C@]3(C)[C@@H](O)CC[C@H]3[C@@H]1CC2 | 62 µM | 22.1 µM
COc1cc2c(cc1N(C)C)CC[C@@H]1[C@@H]2CC[C@]2(C)[C@@H](O)CC[C@@H]12 | 103 µM | 2.82 µM
COc1cc2c(cc1NS(N)(=O)=O)CC[C@@H]1[C@@H]2CC[C@]2(C)[C@@H](O)CC[C@@H]12 | 9.47 µM | 3.88 µM
COc1cc2c(cc1C(=O)N(C)C)CC[C@@H]1[C@@H]2CC[C@]2(C)[C@@H](O)CC[C@@H]12 | > 10 µM | > 10 µM
COc1cc2c(cc1F)CC[C@@H]1[C@@H]2CC[C@]2(C)[C@@H](O)CC[C@@H]12 | 2.94 µM | 2.1 µM
COc1cc2c(cc1NC(C)=O)CC[C@@H]1[C@@H]2CC[C@]2(C)[C@@H](O)CC[C@@H]12 | 3.95 µM | 1.65 µM

The next lines start with results.

IC50 [1] | SMILES | IC50 [2]
0.78 µM | COc1cc2c(cc1NC=O)CC[C@@H]1[C@@H]2CC[C@]2(C)[C@@H](O)CC[C@@H]12 | 0.07 µM
2.48 µM | COc1cc2c(cc1N)CC[C@@H]1[C@@H]2CC[C@]2(C)[C@@H](O)CC[C@@H]12 | 2.32 µM
21.4 µM | COc1cc2c(cc1OS(=O)(=O)C(F)(F)F)CC[C@@H]1[C@@H]2CC[C@]2(C)[C@@H](O)CC[C@@H]12 | 3.27 µM
26.9 µM | COc1cc2c(cc1Cl)CC[C@@H]1[C@@H]2CC[C@]2(C)[C@@H](O)CC[C@@H]12 | 7.45 µM
27.5 µM | COc1cc2c(cc1Br)CC[C@@H]1[C@@H]2CC[C@]2(C)[C@@H](O)CC[C@@H]12 | 9.13 µM
46.9 µM | CCc1cc2c(cc1OC)[C@H]1CC[C@]3(C)[C@@H](O)CC[C@H]3[C@@H]1CC2 | 5.44 µM
55.6 µM | COc1cc2c(cc1CO)CC[C@@H]1[C@@H]2CC[C@]2(C)[C@@H](O)CC[C@@H]12 | 28.2 µM
0.65 µM | COc1cc2c(cc1NC(N)=O)CC[C@@H]1[C@@H]2CC[C@]2(C)[C@@H](O)CC[C@@H]12 | 0.59 µM
8.98 µM | COc1cc2c(cc1C#N)CC[C@@H]1[C@@H]2CC[C@]2(C)[C@@H](O)CC[C@@H]12 | 2.65 µM
> 100 µM | COc1cc2c(cc1NS(=O)(=O)C(F)(F)F)CC[C@@H]1[C@@H]2CC[C@]2(C)[C@@H](O)CC[C@@H]12 | 46.2 µM
> 100 µM | CNC(=O)c1cc2c(cc1OC)[C@H]1CC[C@]3(C)[C@@H](O)CC[C@H]3[C@@H]1CC2 | > 100 µM
> 100 µM | COc1cc2c(cc1C(=O)O)CC[C@@H]1[C@@H]2CC[C@]2(C)[C@@H](O)CC[C@@H]12 | > 100 µM
0.62 µM | COc1cc2c(cc1NC#N)CC[C@@H]1[C@@H]2CC[C@]2(C)[C@@H](O)CC[C@@H]12 | 0.47 µM
> 100 µM | COC(=O)c1cc2c(cc1OC)[C@H]1CC[C@]3(C)[C@@H](O)CC[C@H]3[C@@H]1CC2 | > 100 µM
